Results taken from US20250073146A1, “MIXED SURFACTANT FOR PREPARING TRANSPARENT MICROEMULSION AND FINE NANOEMULSION, AND COSMETIC COMPOSITION PREPARED USING THE SAME” (BIOBEAUTECH Co., Ltd., priority 2023, published 2025).

Experiment: HLB of surfactant
Assay type: physicochemical

Substance | average HLB
polyglyceryl-10 oleate | 12.5
sucrose distearate | 6.3
